Reference: patent publication US4973675A, “Hybrid nitrosoureidoanthracyclines having antitumor activity” (University of Tennessee Research Center, priority 1989, dated 1990)
“Also recorded” adds a separate entry of the source. Read-outs that look alike come from different tables or passages of the source.

What was measured:
calf thymus DNA = assay: Interstrand cross-link formation in isolated calf thymus DNA, ethidium bromide fluorescence assay; assay type: biochemical
Experimental: To further assess the alkylation potential of AD 312, the ability of this agent to form interstrand cross-links in isolated calf thymus DNA was examined using an ethidium bromide fluorescence assay. […] In one set of experiments, DNA was exposed briefly to AD 312 (30 minutes at 50° C.) before being reisolated by precipitation with ethanol. […] Such continuing reaction reflects the presence in the DNA of long-lived precursors of crosslinks similar to what has been found for the classical antitumor chloroethylnitrosoureas. […] It appears, therefore, that AD 312 induces DNA interstrand crosslinks via an initial adduct at O^6 -guanine.

[1] = Solubility in water or saline; assay type: physicochemical
Experimental: Accordingly, the compounds are formulated for administration by dissolving the compound in a pharmaceutically acceptable non-toxic carrier which contains a surfactant. The present inventors employ a formulation of 10% Cremaphor EL (a polyhydroxylated castor oil derivative) available from BASF Chemicals, 10% ethanol and 80% aqueous media (sterile water or saline solution). That quantity of the compound desired for establishing an effective dose is dissolved in a 1:1 mixture of Cremaphor EL and ethanol. Thereafter, sufficient aqueous medium is added with stirring to develop a final formulation containing 80% aqueous medium. This formulation is administered parenterally.

white blood cells = assay: Hematotoxicity study in non-tumor-bearing animals, white blood cell count; assay type: in vivo, mice
Description: FIG. 3 is a graphic representation of white blood cell counts in mice following a single dose of 2-chloroethylnitrosoureidodaunorubicin.
Clinically and in laboratory animals, anthracycline antibiotics and chloroethylnitrosourea alkylating agents currently used in medical oncology are known to be strongly myelosuppressive, with the effects of the alkylating agents on suppression of bone marrow activity being particularly profound and long-lasting.

DNA topoisomerase II = assay: Drug-stimulated topoisomerase II-mediated DNA cleavage assay (end-labeled PMC41 DNA); assay type: biochemical; settings: summary of biochemical studies
[2] = system: human CEM leukemic lymphocytes; assay: Growth inhibition of human CEM leukemic lymphocyte suspension cultures, 48 h continuous drug exposure (ID50); assay type: cell-based
Experimental: (§1) Culture and bioassay conditions were as described in Cancer Chemotherapy Pharmacology 20:277 (1987) "Comparative Effects of Adriamycin and DNA-nonbinding Analogues on DNA, RNA, and Protein Synthesis in Vitro", Israel et al., except that cell counts were determined by hemocytometer rather than by automated cell counting.

[3] = system: plasmid PC15 supercoiled DNA; assay: DNA unwinding assay (interference with DNA topoisomerase I-mediated unwinding; drug-DNA intercalation); assay type: biochemical
[4] = system: murine P388/adriamycin-resistant leukemia; assay: In vivo antitumor activity vs. murine P388/adriamycin-resistant leukemia (P388/ADR); settings: for Median increase in lifespan / Net mean percent weight change, day 7 / Long-term survivors / Range of death (dying animals): ip; for Long-term survivors: sacrifice day 60
Description: Assays were run essentially according to the established protocols of the U.S. National Cancer Institute (Geran et al., 1972 "Protocols for Screening Chemical Agents and Natural Products Against Animal Tumors and Other Biological Systems" (3rd Ed.), Cancer Chemotherapy Rep. [3]33, 1-103.), with the test agent given at 3-5 incremental dose levels in each screening experiment and with median survival of treated groups referenced against data for untreated controls.
*B6D2F1 males; 1 × 10^6 tumor cell inoculum ip day 0; treatment

[5] = system: murine L1210 leukemia cells; assay: Clonogenic assay with cultured murine L1210 leukemia cells, 1 h drug exposure (LD90); assay type: cell-based
Experimental: as §1
+Dose killing 90% of clonogens, 1hr. drug exposure.

[6] = P388/ADR, single dose 40.5 mg/kg day 1

For `COc1cccc2c1C(=O)c1c(O)c3c(c(O)c1C2=O)C[C@@](O)(C(C)=O)C[C@@H]3O[C@H]1C[C@H](NC(=O)N(CCCl)N=O)[C@H](O)[C@H](C)O1` [AD 312, 2-chloroethylnitrosoureidodaunorubicin], the “interstrand crosslink formation” value (calf thymus DNA; 10 mM, 4 hours at 50° C.) was “appreciable interstrand crosslinks”, the “continued crosslink formation after drug removal” value (calf thymus DNA; 30 min exposure at 50° C., DNA reisolated, further incubation at 50° C.) was “crosslinks continued to form for several hours” and the “effect of O^6-alkylguanine-DNA alkyltransferase on crosslink formation” value (calf thymus DNA; enzyme added to AD 312-treated DNA) was “can block the protracted second step in crosslink formation”. The “solubility” value ([1]; water or saline solution) was “essentially insoluble in water or saline solution”, the solubility ([1]; water, of the order of, read-out: solubility in water) was less than 25 µg/mL and the “acute toxicity” value (white blood cells; dose 60.75 mg/kg) was “still not at an acute toxic level”. The “recovery of white blood cell count” value (white blood cells; dose 60.75 mg/kg) was “rapid recovery again being achieved”, the “reduction in white blood cell count” value (white blood cells; dose 60.75 mg/kg, day 4) was “about 67%” and the “day of white blood cell nadir” value (white blood cells; single dose 40.5 mg/kg) was 4 days. The “full recovery of white blood cell count” value (white blood cells; single dose 40.5 mg/kg) was no more than 10 days, the “lowering of white blood cell count” value (white blood cells; single dose 40.5 mg/kg) was “only a modest lowering of the white blood cell count” and the “white blood cell count nadir” value (white blood cells; single dose 40.5 mg/kg, day 4, median 9×10^6 before drug) was 6×10^6 cells/ml. The “DNA topoisomerase II-inhibitory and alkylating activity” value (DNA topoisomerase II) was “clearly establish the DNA topoisomerase II-inhibitory activity and alkylating activity”, the “growth inhibitory activity” value ([2]; CEM in vitro) was “moderate to marked growth inhibitory activity; also recorded: somewhat less active” and the IC50 ([2]; Homo sapiens, Lymphocyte, CEM, 48 hr continuous drug exposure (Table 2), read-out: ID50 (the source's name)) was 90 nM. For the same molecule, the “relative strength of drug-DNA intercalation (arbitrary scale)” value ([3]; 0 = no intercalation, 9 = very strong intercalation) was 5, the “interference with topoisomerase I-mediated conversion of supercoiled DNA / intercalation” value ([3]; 4 concentrations, 125-fold range) was “the ability of these compounds to intercalate, a prerequisite for topoisomerase II inhibition, is clearly established” and the curative rate ([4]; P388/ADR, once daily for 4 days, 15.0 to 20.0 mg/kg/day (3 dose levels)) was 100%. For the same molecule, the “dose toxicity” value [4, 6] was “nontoxic”, the “therapeutic effect” value [4, 6] was “significant therapeutic effect” and the “Median increase in lifespan” value ([4]; 15.0 mg/kg qd 1-4) was “> +500%”. The “Net mean percent weight change, day 7” value ([4]; 15.0 mg/kg qd 1-4) was -4%, the Long-term survivors ([4]; 15.0 mg/kg qd 1-4) was 7/7 and the “Median increase in lifespan” value ([4]; 17.5 mg/kg qd 1-4) was “> +500%”. The “Net mean percent weight change, day 7” value ([4]; 17.5 mg/kg qd 1-4) was -9%, the Long-term survivors ([4]; 17.5 mg/kg qd 1-4) was 7/7 and the “Median increase in lifespan” value ([4]; 20.0 mg/kg qd 1-4) was “> +500%”. The “Net mean percent weight change, day 7” value ([4]; 20.0 mg/kg qd 1-4) was -9%, the Long-term survivors ([4]; 20.0 mg/kg qd 1-4) was 7/7 and the “Median increase in lifespan” value ([4]; 27.0 mg/kg d1 only) was “> +500%”. The “Net mean percent weight change, day 7” value ([4]; 27.0 mg/kg d1 only) was “+5%”, the “Range of death (dying animals)” value ([4]; 27.0 mg/kg d1 only) was 19,26 days and the Long-term survivors ([4]; 27.0 mg/kg d1 only) was 5/7. The “Median increase in lifespan” value ([4]; 40.5 mg/kg d1 only) was “> +500%”, the “Net mean percent weight change, day 7” value ([4]; 40.5 mg/kg d1 only) was -0.5% and the “Range of death (dying animals)” value ([4]; 40.5 mg/kg d1 only) was 13,27 days. For the same molecule, the Long-term survivors ([4]; 40.5 mg/kg d1 only) was 5/7, the “clonogenic cell kill” value ([5]; L1210, 1 hour exposure) was “most potent of the six agents compared” and the IC90 ([5]; Mus musculus, L1210, 1 hr drug exposure, read-out: L1210 LD90 (dose killing 90% of clonogens)) was 260 nM.
